How the values were obtained:
[1] = test system: MX-1 human mammary tumor xenografts; assay: MX-1 human mammary tumor xenografts in athymic nude mice, tumor growth; type: in vivo
[2] = Weight loss and mortality in MX-1 xenograft study; type: in vivo, athymic nude mice; conditions: efficacious dose, administered alone
Experimental: Its activity is not affected by the multidrug resistance (MDR) phenotype.
Administration of suboptimal doses of 3 mg/kg cisplatin i.v. bolus or 15 mg/kg/hr compound 1 i.v. infusion for 4 hours was compared with the efficacy of coadministration against MX-1 tumors.

β-tubulin = assay: Tubulin polymerization / binding to β-tubulin; type: biochemical; conditions: by covalently binding to β-tubulin
various tumor cell lines = assay: Growth and clonogenic potential of tumor cell lines in culture; type: cell-based

Compound	efficacy against MX-1 tumor, single agent ([1]; efficacious dose, not stated)	body weight loss accompanying efficacy, single agent [2]	inhibiting the growth of MX-1 xenografts, single agent ([1]; 30 mg/kg/hr infused i.v. for 4 hours)	tubulin polymerization (β-tubulin)	activity versus multidrug resistance (MDR) phenotype (various tumor cell lines)	growth and clonogenic potential of various tumor cell lines in culture (various tumor cell lines)
N.N.[Cl][Pt][Cl] [Cisplatin, cis-diaminedichloroplatinum (II), reference compound]	very efficacious	accompanied by body weight loss	–	–	–	–
COc1ccc(NS(=O)(=O)c2c(F)c(F)c(F)c(F)c2F)cc1F.[Na] [Compound 1, 2-Fluoro-1-methoxy-4-(pentafluorophenylsulfonamido)benzene, sodium salt]	–	accompanied by body weight loss	very effective	prevents tubulin polymerization	not affected	inhibits the growth and clonogenic potential

Source: patent US6355628B1, “Combination therapy using pentafluorobenzenesulfonamides” (priority 1999, dated 2002)
